Consider two compounds from patent US11826402B2, “Combination therapy involving antibodies against claudin 18.2 for treatment of metastatic pancreatic adenocarcinoma” (Astellas Pharma Inc., priority 2013, dated 2023).

In one series the test system is Capan1-LVT. As to the kind of experiment: Inhibition of proliferation (XTT viability assay, 4 days). Format: cell-based. The settings on record: Homo sapiens, 96 h, 4 days exposure. The method, then: To analyze dose-response curves of each chemotherapeutic agent, a proliferation assay was performed.
Cells were seeded in 96 well plates and after 4-6 hours gemcitabine or oxaliplatin was added in following concentrations: 1000, 500, 250, 100 and 20 ng/ml. The proliferation assay was incubated for 4 days at 37° C. and 5% CO2. 50 μl XTT complete reagent (50 parts XTT+1 part coupl. reagent mixed) was added and incubated at 37° C. Measurement of absorbance (cells plus supernatant) was done with the Tecan Safire after 3 h and 4 h. Inhibition of proliferation was calculated compared to medium values set as 100%. EC50 values for gemcitabine and oxaliplatin were calculated in the GraphPad Prism program.
For orientation: Tetrazolium dyes change colour on reduction, which living cells bring about.

The test system of another series is Panc05.04. Description: IMAB362-mediated ADCC assay (luciferase, human PBMCs, E:T 40:1). Format: cell-based. As for the experimental part: For ADCC assays pancreatic cancer cell lines were transiently transfected with luciferase RNA. This luciferase RNA (pST1-luc2mut-2 hBgUTR-A121-EciI vector (pST1-109)) was produced with an ARCA cap and dissolved in H2O. RNA was stored in 22 μl aliquots at −80° C. For all pancreas cell lines the optimal electroporation conditions were determined resulting in highest transfection rates and viability of the cells. In each assay cells were detached with PBS/5 mM EDTA and 2.5×10^6 cells dissolved in 250 μl X-Vivo were mixed in ice-cold cuvettes with 10 μg RNA. Cells were immediately electroporated (GenePulser Xcell, Biorad) and resuspended in pre-warmed Assay-medium adjusting the cells to 5×10^5 cells/ml. Tested electroporation conditions were for all cell lines: • EP1: 250 V, 475 μF • EP2: 200 V, 300 μF • EP3: 150 V, 300 μF • EP4: 200 V, 400 μF • EP5: 250 V, 950 μF • Control: 0 V, 0 μF
The viability of the cells was determined directly after electroporation using CASY or by staining cells with Trypan blue and determining the percentage of dead cells in the Neubauer chamber. Cells were seeded in quadruplicates in white 96-well plates (2.5×10^4 cells/well) and incubated for 24 h. Subsequently, luciferase activity was measured in a luminometer (Tecan Infinite200) after addition of luciferin mix for 90 min. Transfection was successful and consequently ADCC measurable, if RLU values >1.000 were obtained.
Pancreatic cancer target cells were seeded two days in advance in flasks to obtain 80-90% confluent cultures on the day ADCC started. […] NUGC-4 sub 10cH11 subE10 Luci #2 cells (8000 cells/well) were seeded in addition as positive controls in all assays. Cells were cultivated for 4-6 h before addition of antibody and purified PBMCs. PBMCs were prepared from fresh human buffy coat obtained from healthy donors. About 3× 20-25 ml blood was diluted (1:2) with PBS and carefully layered on 4×15 ml Ficol-Paque Plus (GE Healthcare) in 50 ml Falcon tubes. Gradients were centrifuged (25 min, 700 g). After centrifugation, peripheral blood mononuclear cells (PBMC) were collected from the interphase, washed in PBS/2 mM EDTA, centrifuged (5 min, 468 g), again resuspended in PBS/2 mM EDTA and centrifuged (10 min, 208 g) to remove the platelets. The pellets were resuspended in 50 ml PBS/2 mM EDTA and cells were counted. PBMCs were centrifuged (5 min, 468 g) and resuspended in X-Vivo-15 culture medium at a concentration of 1.6×10^7 cells/ml for addition to the pancreas cells and 1.28×10^7 cells/ml for addition to the NUGC-4 sub 10cH11 subE10 Luci #2 cells.
Of each dilution 25 μl was added in quadruplicates to the target cells. PBS without antibodies was added in the medium and lysis control wells. Subsequently, 25 μl PBMCs were added to each well (E:T ratio=40:1) and plates were incubated for 24 h±1 h at 37° C., 5% CO2.
The next day, 10 μl 8% Triton X100/PBS solution was added to the lysis control wells and 10 μl PBS in all other wells. Finally, 50 μl freshly prepared luciferin stock solution was added (160 mM HEPES, 1×PBS, 3.84 mg/ml D-Luciferin (BD Biosciences)) to each well and plates were incubated for 80 min at RT in the dark. Luminescence resulting from the oxidation of […] by the luciferase of viable cells was measured using a microplate-reader (Infinite200, Tecan, Switzerland). Percentage of cellular cytotoxicity was calculated using the following formula: Specific killing (%)=100−[(RLUsample−RLUtriton)/(RLUmedium ctrl−RLUtriton)×100] […]

A further series has as its system KATO-III. Description: Apoptosis by cross-linking of IMAB362 (TUNEL assay). Format: cell-based, human. To be noted: within 18-42 hours. The method, then:
(§1) The apoptotic assay based on DNA fragmentation was performed as follows. Treated cells (adherent and floating) were fixed in 70% icecold EtOH overnight. After washing, 10^6 fixed cells were incubated with terminal deoxynucleotidyl transferase enzyme (TdT) and FITC-dUTP for 90 min at 37° C. to label DNA breaks. Cells were rinsed, incubated in RNase A/propidium iodide in the dark for 30 min at room temperature to stain total DNA, then analyzed by flowvcytometry. Cell doublets and clumps were eliminated from the analysis by gating.
(§2) The magnitude of apoptosis correlates with the dose of the antibody and level of target expression on the cancer cell. Treatment with gemcitabine leads to cell cycle arrest of tumor cells followed by apoptotic cell death.

A further series has as its system NUGC-4. Described as above. Format: cell-based, human. The settings on record: within 18-42 hours. The method, then: as §1, §2
In series [1] the test system is LVT pancreatic cancer cell lines ectopically expressing CLDN18.2. As to the kind of experiment: IF staining with IMAB362 under native conditions. Format: binding, human. To be noted: 8 LVT pancreatic cancer cell lines. The source says: IF analysis of pancreatic cancer cell lines (FIGS. 16A, 16B, 16D and 16E), lentivirally transduced pancreas cell lines (FIGS. 16G-16L) and KATO-III gastric cancer control cells (FIGS. 16C and 16F) expressing CLDN18.2. […] DAPI was used to stain the nuclei. Exposure times are indicated in each panel. FIG. 16G: BxPC3-LVT; FIG. 16H: CAPAN1-LVT; FIG. 16I: DANG-LVT; FIG. 16J: MiaPaCa2-LVT; FIG. 16K: Patu8902-LVT; FIG. 16L: Suit2-LVT.

In series [2] the target is first extracellular domain (ECD1) of CLDN18.2 (Homo sapiens, UniProt P56856). Description: Target binding of IMAB362 (background).
Series [3] in a line: Repeated dose toxicity study in mice. Format: in vivo.
A further series has as its system HUP-T3. As to the kind of experiment: IMAB362-mediated ADCC assay. The format is cell-based, human. The settings on record: at least 2 donors.
The next series has as its system HUP-T4. Description: IMAB362-mediated ADCC assay. Format: cell-based, human. To be noted: at least 2 donors.

In brackets after ≈: the same amount, converted by molar mass.

Usually IC50 stands for the point on the concentration scale where inhibition reaches its midpoint. A low value points to greater potency in that assay. In turn, `Nc1ccn([C@@H]2O[C@H](CO)[C@@H](O)C2(F)F)c(=O)n1` [gemcitabine, 4-amino-1-(2-deoxy-2,2-difluoro-β-D-erythro-pentofuranosyl)pyrimidin-2(1H)-one] yielded an IC50 in the series on Capan1-LVT of approximately 0.001 µg/mL (≈ 3.8 nM).
For “IMAB362: chimeric IgG1 antibody directed against CLDN18.2, developed by Ganymed Pharmaceuticals AG”, the “ADCC killing by IMAB362 and PBMCs” value in the series on Panc05.04 (Panc05.04) is on record as “efficiently killed”. Further, the “EC50 of effector cell-dependent killing (ADCC)” value with Panc05.04 (Panc05.04 (pooled with DANG), PBMCs of different donors, E:T 40:1) was in the range of 0.1 to 38 µg/mL. Besides, in the series on Panc05.04 (Panc05.04, at highest antibody concentrations), the “maximum killing rate (ADCC)” value was approximately 50%. Moreover, the “ADCC EC50” value in the series with Panc05.04 (Panc05.04, at least 2 donors) is 5.7288 ± 4.4351 µg/mL; in the series on HUP-T3 it was “n.m”; in the series with HUP-T4, “n.m”. Besides, the “ADCC Max. lysis” value is listed as 67.1 ± 6.8% with Panc05.04 (Panc05.04, at least 2 donors) and “n.m” in the series with HUP-T4. Moreover, the induction of apoptosis result in the series with KATO-III and in the series on NUGC-4 was “induces direct apoptosis” in each case. Besides, in [1], the “membrane staining (IF, native staining protocol)” value is recorded as “clear membrane staining”. Also, the “recognition of ECD1 of CLDN18.2” value in series [2] is “high affinity and specificity”. For the same compound, the gastric toxicity result in series [3] (any toxicity study) is “no gastric toxicity”. Moreover, the “tolerability of repeated doses i.v.” value in [3] (weekly for 3 months, up to 400 mg/kg) is “well tolerated”.
